Assay results taken from US10597388B2, “Pyridazinone herbicides” (FMC CORPORATION, priority 2014, dated 2020).

Tests used:
Experiment in all cases: Test C greenhouse herbicide test, pre- and postemergence
Format in all cases: in vivo
[1] = test system: ragweed (common ragweed, Ambrosia elatior)
Outline: (§1)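 Visual 0–100 injury score (100 = complete control) taken against untreated controls after 13–15 d in greenhouse. Test chemicals, formulated in solvent plus surfactant, applied preemergence to seeds in loam–sand soil or postemergence to 1- to 4-leaf plants (2–18 cm).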

soybean (Glycine max) = test system: soybean (Glycine max)
Outline: as §1

[2] = test system: oilseed rape (Brassica napus)
Outline: as §1

[3] = test system: foxtail, giant (giant foxtail, Setaria faberii)
Outline: as §1

[4] = test system: waterhemp (common waterhemp, Amaranthus rudis)
Outline: as §1

[5] = test system: crabgrass, large (large crabgrass, Digitaria sanguinalis)
Outline: as §1

[6] = test system: nutsedge, yellow (yellow nutsedge, Cyperus esculentus)
Outline: as §1

[7] = test system: wheat (winter wheat, Triticum aestivum)
Outline: as §1

[8] = test system: lambsquarters (Chenopodium album)
Outline: as §1

[9] = test system: johnsongrass (Sorghum halepense)
Outline: as §1

[10] = test system: barnyardgrass (Echinochloa crus-galli)
Outline: as §1

[11] = test system: galium (catchweed bedstraw, Galium aparine)
Outline: as §1

[12] = 4 g ai/ha, preemergence, visual rating, scale 0 to 100 (0 no effect, 100 complete control), 13 to 15 d
[13] = Postemergence, 8 g ai/ha, scale 0 to 100 (0 no effect, 100 complete control)
[14] = Postemergence, 16 g ai/ha, scale 0 to 100 (0 no effect, 100 complete control)
[15] = Postemergence, 31 g ai/ha, scale 0 to 100 (0 no effect, 100 complete control)
[16] = Preemergence, 16 g ai/ha, scale 0 to 100, 0 is no effect, 100 is complete control
[17] = Preemergence, 31 g ai/ha, scale 0 to 100, 0 is no effect, 100 is complete control
[18] = Preemergence, 8 g ai/ha, scale 0 to 100, 0 is no effect, 100 is complete control
[19] = Postemergence, 62 g ai/ha, 0 to 100 scale (0 no effect, 100 complete control)
[20] = Postemergence, 250 g ai/ha, scale 0 to 100, 0 no effect, 100 complete control, 13 to 15 d
[21] = Preemergence, 62 g ai/ha, scale 0 to 100, 0 is no effect, 100 is complete control
[22] = Preemergence, 125 g ai/ha, scale 0 to 100, 0 is no effect, 100 is complete control
[23] = Preemergence, 250 g ai/ha, scale 0 to 100, 0 no effect, 100 complete control
[24] = postemergence, 125 g ai/ha, scale 0 to 100, 0 no effect, 100 complete control

SMILES: Cc1ccc2ccc(Cl)cc2c1-c1c(O)c(C)nn(C)c1=O [Compound 144]
- Plant response rating, Ragweed [1, 12]: 70
- Plant response rating, Ragweed [1, 13]: 10
- Ragweed plant response rating [1, 13]: 10
- Plant response rating, Ragweed [1, 14]: 35
- Plant response rating, Ragweed [1, 15]: 35
- Plant response rating, Ragweed [1, 16]: 95
- Plant response rating, Ragweed [1, 17]: 98
- Plant response rating, Soybean (soybean (Glycine max); [12]): 10
- Plant response rating, Soybean (soybean (Glycine max); [13]): 40
- Soybean plant response rating (soybean (Glycine max); [13]): 45
- Plant response rating, Soybean (soybean (Glycine max); [14]): 25
- Plant response rating, Soybean (soybean (Glycine max); [15]): 25
- Plant response rating, Soybean (soybean (Glycine max); [16]): 0
- Plant response rating, Soybean (soybean (Glycine max); [17]): 5
- Plant response rating, Oilseed Rape [2, 12]: 0
- Oilseed Rape plant response rating [2, 13]: 85
- Plant response rating, Oilseed Rape [2, 13]: 95
- Plant response rating, Oilseed Rape [2, 14]: 95
- Plant response rating, Oilseed Rape [2, 15]: 95
- Plant response rating, Oilseed Rape [2, 16]: 5
- Plant response rating, Oilseed Rape [2, 17]: 70
- Plant response rating, Foxtail, Giant [3, 12]: 30
- Foxtail, Giant plant response rating [3, 13]: 45
- Plant response rating, Foxtail, Giant [3, 13]: 50
- Plant response rating, Foxtail, Giant [3, 14]: 60
- Plant response rating, Foxtail, Giant [3, 15]: 70
- Plant response rating, Foxtail, Giant [3, 18]: 60
- Plant response rating, Foxtail, Giant [3, 16]: 75
- Plant response rating, Foxtail, Giant [3, 17]: 90
- Plant response rating, Waterhemp [4, 12]: 80
- Plant response rating, Waterhemp [4, 13]: 90
- Waterhemp plant response rating [4, 13]: 90
- Plant response rating, Waterhemp [4, 14]: 90
- Plant response rating, Waterhemp [4, 15]: 95
- Plant response rating, Waterhemp [4, 16]: 100
- Plant response rating, Waterhemp [4, 17]: 100
- Plant response rating, Crabgrass, Large [5, 12]: 0
- Crabgrass, Large plant response rating [5, 13]: 20
- Plant response rating, Crabgrass, Large [5, 13]: 20
- Plant response rating, Crabgrass, Large [5, 14]: 25
- Plant response rating, Crabgrass, Large [5, 15]: 30
- Plant response rating, Crabgrass, Large [5, 18]: 5
- Plant response rating, Crabgrass, Large [5, 16]: 25
- Plant response rating, Crabgrass, Large [5, 17]: 60
- Plant response rating, Nutsedge, Yellow [6, 12]: 5
- Nutsedge, Yellow plant response rating [6, 13]: 10
- Plant response rating, Nutsedge, Yellow [6, 13]: 60
- Plant response rating, Nutsedge, Yellow [6, 14]: 60
- Plant response rating, Nutsedge, Yellow [6, 15]: 75
- Plant response rating, Nutsedge, Yellow [6, 16]: 25
- Plant response rating, Nutsedge, Yellow [6, 17]: 40
- Plant response rating, Wheat [7, 12]: 0
- Plant response rating, Wheat [7, 13]: 90
- Wheat plant response rating [7, 13]: 90
- Plant response rating, Wheat [7, 14]: 95
- Plant response rating, Wheat [7, 15]: 95
- Plant response rating, Wheat [7, 16]: 70
- Plant response rating, Wheat [7, 17]: 90
- Plant response rating, Lambsquarters [8, 12]: 25
- Lambsquarters plant response rating [8, 13]: 80
- Plant response rating, Lambsquarters [8, 13]: 90
- Plant response rating, Lambsquarters [8, 14]: 90
- Plant response rating, Lambsquarters [8, 15]: 90
- Plant response rating, Lambsquarters [8, 16]: 65
- Plant response rating, Lambsquarters [8, 17]: 100
- Plant response rating, Johnsongrass [9, 12]: 0
- Johnsongrass plant response rating [9, 13]: 20
- Plant response rating, Johnsongrass [9, 13]: 10
- Plant response rating, Johnsongrass [9, 14]: 10
- Plant response rating, Johnsongrass [9, 15]: 10
- Plant response rating, Johnsongrass [9, 16]: 25
- Plant response rating, Johnsongrass [9, 17]: 60
- Plant response rating, Barnyardgrass [10, 12]: 0
- Plant response rating, Barnyardgrass ([10]; Postemergence, 4 g ai/ha, scale 0 to 100 (0 no effect, 100 complete control)): 15
- Plant response rating, Barnyardgrass [10, 13]: 25
- Plant response rating, Barnyardgrass [10, 14]: 35
- Plant response rating, Barnyardgrass [10, 15]: 65
- Plant response rating, Barnyardgrass [10, 18]: 0
- Plant response rating, Barnyardgrass [10, 16]: 5
- Plant response rating, Barnyardgrass [10, 17]: 35
- Plant response rating, Galium [11, 12]: 90
- Galium plant response rating [11, 13]: 80
- Plant response rating, Galium [11, 13]: 90
- Plant response rating, Galium [11, 14]: 90
- Plant response rating, Galium [11, 15]: 95
- Plant response rating, Galium [11, 16]: 95
- Plant response rating, Galium [11, 17]: 100

SMILES: COC(=O)Oc1c(C)nn(C)c(=O)c1-c1ccc(Br)c2ccccc12 [Compound 145]
- Plant response rating, Ragweed [1, 15]: 0
- Ragweed plant response rating [1, 19]: 0
- Plant response rating, Ragweed [1, 20]: 25
- Plant response rating, Ragweed [1, 17]: 55
- Plant response rating, Ragweed [1, 21]: 65
- Plant response rating, Ragweed [1, 22]: 85
- Ragweed plant response rating [1, 23]: 90
- Ragweed plant response rating [1, 24]: 5
- Plant response rating, Soybean (soybean (Glycine max); [15]): 40
- Soybean plant response rating (soybean (Glycine max); [19]): 40
- Plant response rating, Soybean (soybean (Glycine max); [20]): 70
- Plant response rating, Soybean (soybean (Glycine max); [17]): 0
- Plant response rating, Soybean (soybean (Glycine max); [21]): 55
- Plant response rating, Soybean (soybean (Glycine max); [22]): 75
- Soybean plant response rating (soybean (Glycine max); [23]): 80
- Soybean plant response rating (soybean (Glycine max); [24]): 55
- Plant response rating, Oilseed Rape [2, 15]: 98
- Oilseed Rape plant response rating [2, 19]: 98
- Plant response rating, Oilseed Rape [2, 20]: 90
- Plant response rating, Oilseed Rape [2, 17]: 5
- Plant response rating, Oilseed Rape [2, 21]: 90
- Plant response rating, Oilseed Rape [2, 22]: 90
- Oilseed Rape plant response rating [2, 23]: 98
- Oilseed Rape plant response rating [2, 24]: 95
- Plant response rating, Foxtail, Giant [3, 15]: 20
- Foxtail, Giant plant response rating [3, 19]: 25
- Plant response rating, Foxtail, Giant [3, 20]: 55
- Plant response rating, Foxtail, Giant [3, 17]: 35
- Plant response rating, Foxtail, Giant [3, 21]: 60
- Plant response rating, Foxtail, Giant [3, 22]: 75
- Foxtail, Giant plant response rating [3, 23]: 95
- Foxtail, Giant plant response rating [3, 24]: 25
- Plant response rating, Waterhemp [4, 15]: 95
- Waterhemp plant response rating [4, 19]: 100
- Plant response rating, Waterhemp [4, 20]: 100
- Plant response rating, Waterhemp [4, 17]: 85
- Plant response rating, Waterhemp [4, 21]: 98
- Plant response rating, Waterhemp [4, 22]: 98
- Waterhemp plant response rating [4, 23]: 100
- Waterhemp plant response rating [4, 24]: 100
- Plant response rating, Crabgrass, Large [5, 15]: 15
- Crabgrass, Large plant response rating [5, 19]: 10
- Plant response rating, Crabgrass, Large [5, 20]: 20
- Plant response rating, Crabgrass, Large [5, 17]: 5
- Plant response rating, Crabgrass, Large [5, 21]: 50
- Plant response rating, Crabgrass, Large [5, 22]: 55
- Crabgrass, Large plant response rating [5, 23]: 55
- Crabgrass, Large plant response rating [5, 24]: 10
- Plant response rating, Nutsedge, Yellow [6, 15]: 70
- Nutsedge, Yellow plant response rating [6, 19]: 90
- Plant response rating, Nutsedge, Yellow [6, 20]: 95
- Plant response rating, Nutsedge, Yellow [6, 17]: 35
- Plant response rating, Nutsedge, Yellow [6, 21]: 85
- Plant response rating, Nutsedge, Yellow [6, 22]: 95
- Nutsedge, Yellow plant response rating [6, 23]: 90
- Nutsedge, Yellow plant response rating [6, 24]: 85
- Plant response rating, Wheat [7, 15]: 40
- Wheat plant response rating [7, 19]: 50
- Plant response rating, Wheat [7, 20]: 90
- Plant response rating, Wheat [7, 17]: 0
- Plant response rating, Wheat [7, 21]: 0
- Plant response rating, Wheat [7, 22]: 0
- Wheat plant response rating [7, 23]: 5
- Wheat plant response rating [7, 24]: 85
- Plant response rating, Lambsquarters [8, 15]: 98
- Lambsquarters plant response rating [8, 19]: 98
- Plant response rating, Lambsquarters [8, 20]: 100
- Plant response rating, Lambsquarters [8, 17]: 90
- Plant response rating, Lambsquarters [8, 21]: 90
- Plant response rating, Lambsquarters [8, 22]: 100
- Lambsquarters plant response rating [8, 23]: 100
- Lambsquarters plant response rating [8, 24]: 100
- Plant response rating, Johnsongrass [9, 15]: 10
- Johnsongrass plant response rating [9, 19]: 10
- Plant response rating, Johnsongrass [9, 20]: 20
- Plant response rating, Johnsongrass [9, 17]: 10
- Plant response rating, Johnsongrass [9, 21]: 5
- Plant response rating, Johnsongrass [9, 22]: 5
- Johnsongrass plant response rating [9, 23]: 5
- Johnsongrass plant response rating [9, 24]: 20
- Plant response rating, Barnyardgrass [10, 15]: 20
- Barnyardgrass plant response rating [10, 19]: 15
- Plant response rating, Barnyardgrass ([10]; Postemergence, 125 g ai/ha, scale 0 to 100, 0 is no effect, 100 is complete control): 30
- Plant response rating, Barnyardgrass [10, 20]: 70
- Plant response rating, Barnyardgrass [10, 17]: 10
- Plant response rating, Barnyardgrass [10, 21]: 35
- Plant response rating, Barnyardgrass [10, 22]: 75
- Barnyardgrass plant response rating [10, 23]: 95
- Plant response rating, Galium [11, 15]: 90
- Galium plant response rating [11, 19]: 95
- Plant response rating, Galium [11, 20]: 100
- Plant response rating, Galium [11, 17]: 90
- Plant response rating, Galium [11, 21]: 98
- Plant response rating, Galium [11, 22]: 100
- Galium plant response rating [11, 23]: 98
- Galium plant response rating [11, 24]: 98
